In ChEMBL document CHEMBL1130322, “Anticancer and antiviral effects and inactivation of S-adenosyl-L-homocysteine hydrolase with 5'-carboxaldehydes and oximes synthesized from adenosine and sugar-modified analogues” (J Med Chem, 1997):
Values after ≈ are worked out from the molar mass of the structure shown.

What was measured:
Vero [1] = test: cells; details: Chlorocebus sabaeus
Vero [2] = test: cells; details: Chlorocebus sabaeus; remark: listed apart in the source
Human alphaherpesvirus 1 [3] = test: microbe, parasite or virus in culture
E6SM = test: Minimum inhibitory concentration required to effect a microscopically visible change of cell morphology in human embryonic skin-muscle (E6SM) cell culture.; type: functional; design: unit not given here
CCRF-CEM = test: cells; details: Homo sapiens
Vero [4] = test: cells; details: Chlorocebus sabaeus; remark: listed apart in the source
FM3A = test: cells; details: Mus musculus
Human betaherpesvirus 5 [5] = test: microbe, parasite or virus in culture
HEL [6] = test: (§1) 50% Cytostatic concentration required to inhibit human erythroleukemic (HEL) cell proliferation; type: functional; design: unit not given here
Human alphaherpesvirus 1 [7] = test: microbe, parasite or virus in culture; remark: listed apart in the source
Vero [8] = test: cells; details: Chlorocebus sabaeus; remark: listed apart in the source
Human alphaherpesvirus 2 = test: microbe, parasite or virus in culture
L1210 = test: cells; details: Mus musculus
MOLT-4 = test: cells; details: Homo sapiens
Human alphaherpesvirus 1 [9] = test: microbe, parasite or virus in culture; remark: listed apart in the source
Human betaherpesvirus 5 [10] = test: microbe, parasite or virus in culture; remark: listed apart in the source
Vero [11] = test: cells; details: Chlorocebus sabaeus; remark: listed apart in the source
Human alphaherpesvirus 1 [12] = test: microbe, parasite or virus in culture; remark: listed apart in the source
Human alphaherpesvirus 1 [13] = test: microbe, parasite or virus in culture; remark: listed apart in the source
HeLa [14] = test: Minimum inhibitory concentration required to effect a microscopically visible change of cell morphology in HeLa cell culture.; type: functional, Homo sapiens; design: unit not given here
MDCK [15] = type: functional, Canis lupus familiaris; design: unit not given here
MDCK [16] = test: cells; details: Canis lupus familiaris
[17] = test system: Respiratory syncytial virus; test: microbe, parasite or virus in culture; details: human respiratory syncytial virus, HeLa
Vero [18] = test: cells; details: Chlorocebus sabaeus; remark: listed apart in the source
HeLa [19] = test: cells; details: Homo sapiens
Adenosylhomocysteinase [20] = target: T1, Adenosylhomocysteinase (Homo sapiens, UniProt P23526)
Target sequence in this assay (P23526 whole entry): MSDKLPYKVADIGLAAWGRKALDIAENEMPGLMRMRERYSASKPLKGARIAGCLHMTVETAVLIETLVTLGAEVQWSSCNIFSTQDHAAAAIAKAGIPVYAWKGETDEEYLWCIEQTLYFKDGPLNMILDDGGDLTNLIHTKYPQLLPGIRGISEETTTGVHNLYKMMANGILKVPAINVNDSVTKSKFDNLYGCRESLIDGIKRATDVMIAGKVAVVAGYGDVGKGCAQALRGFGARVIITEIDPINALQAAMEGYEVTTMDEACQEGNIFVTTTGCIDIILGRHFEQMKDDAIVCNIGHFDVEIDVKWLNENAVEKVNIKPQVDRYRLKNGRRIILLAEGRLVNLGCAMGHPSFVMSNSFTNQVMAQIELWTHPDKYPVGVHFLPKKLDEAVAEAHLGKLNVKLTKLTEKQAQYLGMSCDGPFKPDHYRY

Vero [21] = test: Minimum inhibitory concentration required to effect a microscopically visible change of cell morphology in Vero cell culture.; type: functional, Chlorocebus sabaeus; design: unit not given here
HEL [22] = test: as §1; type: functional
HeLa [23] = test: cells; details: Homo sapiens; remark: listed apart in the source
MDCK [24] = test: cells; details: Canis lupus familiaris; remark: listed apart in the source
Adenosylhomocysteinase [25] = target: T1, Adenosylhomocysteinase; remark: listed apart in the source
Target sequence in this assay (P23526 2-432 limits assumed): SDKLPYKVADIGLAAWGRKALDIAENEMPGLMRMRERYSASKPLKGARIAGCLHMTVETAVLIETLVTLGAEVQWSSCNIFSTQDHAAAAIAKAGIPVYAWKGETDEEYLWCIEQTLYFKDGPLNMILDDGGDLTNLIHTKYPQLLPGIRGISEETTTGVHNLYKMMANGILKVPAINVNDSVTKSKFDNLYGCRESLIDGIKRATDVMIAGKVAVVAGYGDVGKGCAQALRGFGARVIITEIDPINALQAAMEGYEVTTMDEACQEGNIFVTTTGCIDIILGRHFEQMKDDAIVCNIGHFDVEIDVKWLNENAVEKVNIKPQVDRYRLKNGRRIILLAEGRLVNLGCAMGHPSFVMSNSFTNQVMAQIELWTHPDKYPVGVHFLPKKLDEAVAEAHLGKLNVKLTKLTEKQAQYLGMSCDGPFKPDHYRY

Human alphaherpesvirus 1 [26] = test: microbe, parasite or virus in culture; remark: listed apart in the source

SMILES	EC50 (Vero [1]) [µg/mL]	EC50 (Vero [2]) [µg/mL]	EC50 (Human alphaherpesvirus 1 [3]) [µg/mL]	MIC (E6SM)	IC50 (CCRF-CEM) [µg/mL]	EC50 (Vero [4]) [µg/mL]	EC50 (Vaccinia virus) [µg/mL]	IC50 (FM3A) [µg/mL]	EC50 (Human betaherpesvirus 5 [5]) [µg/mL]	CC50 (HEL [6])	EC50 (Human alphaherpesvirus 1 [7]) [µg/mL]	EC50 (Vero [8]) [µg/mL]	EC50 (Human alphaherpesvirus 2) [µg/mL]	IC50 (L1210) [µg/mL]	IC50 (MOLT-4) [µg/mL]	EC50 (Human alphaherpesvirus 1 [9]) [µg/mL]	EC50 (Human betaherpesvirus 5 [10]) [µg/mL]	EC50 (Vero [11]) [µg/mL]	Ki (Adenosylhomocysteinase [20]) [nM]	k2 (Adenosylhomocysteinase [25]) [min⁻¹]	other results
Nc1ncnc2c1ncn2C1OC(C=O)CC1O (configuration not stated)	> 200	> 400	> 100	>400	> 200	> 200	> 400	> 200	> 40	>50	> 400	> 200	> 400	> 200	> 200	> 400	> 40	> 400	–	–	–
Nc1ncnc2c1ncn2C1O[C@H](C(O)O)[C@@H](O)[C@@H]1O (some centres not stated)	300 (≈ 1060 µM)	150 (≈ 530 µM)	–	>400	118 (≈ 417 µM)	> 200	20 (≈ 70.6 µM)	125 (≈ 441 µM)	> 40	>50	300 (≈ 1060 µM)	> 200	> 400	156 (≈ 551 µM)	> 200	–	> 40	> 400	–	–	EC50 (Human alphaherpesvirus 1 [12]): > 400 µg/mL; EC50 (Human alphaherpesvirus 1 [13]): > 400 µg/mL
Nc1ncnc2c1ncn2[C@@H]1O[C@H](C=O)[C@@H](O)[C@H]1O	> 200	> 200	> 400	>400	7.3 (≈ 27.5 µM)	> 200	70 (≈ 264 µM)	15 (≈ 56.6 µM)	> 40	>50	> 400	> 200	> 400	9.71 (≈ 36.6 µM)	41.5 (≈ 156 µM)	> 400	> 40	300 (≈ 1130 µM)	–	–	–
Nc1ncnc2c1ncn2C1CC(O)C(C=O)O1 (configuration not stated)	> 200	70 (≈ 281 µM)	> 400	>400	17.8 (≈ 71.4 µM)	> 200	> 400	50.9 (≈ 204 µM)	> 40	>50	> 400	> 200	> 400	6.64 (≈ 26.6 µM)	4.96 (≈ 19.9 µM)	> 400	> 40	> 400	–	–	–
Nc1ncnc2c1ncn2C1OC(/C=N/O)CC1O (configuration not stated)	300 (≈ 1140 µM)	> 400	> 400	>400	185 (≈ 700 µM)	> 400	300 (≈ 1140 µM)	> 200	10 (≈ 37.8 µM)	>50	> 400	> 400	> 400	180 (≈ 681 µM)	> 200	> 400	40 (≈ 151 µM)	> 400	–	–	–
Nc1ncnc2c1ncn2C[C@H](O)CO [(S)-DHPA]	70 (≈ 335 µM)	70 (≈ 335 µM)	> 400	>400	–	> 400	20 (≈ 95.6 µM)	–	–	–	> 400	> 400	> 400	–	–	> 40	–	20 (≈ 95.6 µM)	–	–	–
Nc1ccnc2c1ncn2[C@@H]1O[C@H](CO)[C@@H](O)[C@H]1O	4 (≈ 15 µM)	0.2 (≈ 0.751 µM)	> 400	>400	–	> 400	0.7 (≈ 2.63 µM)	–	–	–	> 400	4 (≈ 15 µM)	> 400	–	–	40 (≈ 150 µM)	–	0.7 (≈ 2.63 µM)	–	–	–
CCO/N=C/[C@H]1OC(n2cnc3c(N)ncnc32)[C@H](O)[C@@H]1O (some centres not stated)	> 100	> 100	> 200	>200	> 500	> 100	100 (≈ 324 µM)	> 500	> 10	–	> 200	> 100	> 200	295 (≈ 957 µM)	> 500	> 200	> 4	> 200	111	0.037	MIC (HeLa [14]): >200; MIC (MDCK [15]): 4; EC50 (MDCK [16]): 0.8 µg/mL (≈ 2.59 µM); EC50 [17]: > 200 µg/mL; EC50 (Vero [18]): > 100 µg/mL; EC50 (HeLa [19]): > 200 µg/mL; MIC (Vero [21]): >200; CC50 (HEL [22]): >50; EC50 (HeLa [23]): > 200 µg/mL; EC50 (MDCK [24]): 1.2 µg/mL (≈ 3.89 µM)
Nc1ncnc2c1ncn2C1O[C@H](/C=N/OCc2ccccc2)[C@@H](O)[C@H]1O (some centres not stated)	> 100	> 100	> 40	100	136 (≈ 367 µM)	> 100	2 (≈ 5.4 µM)	340 (≈ 918 µM)	> 10	33	> 40	> 100	> 40	187 (≈ 505 µM)	118 (≈ 319 µM)	> 40	> 10	> 40	101	0.036	MIC (HeLa [14]): >200; MIC (MDCK [15]): 100; EC50 (MDCK [16]): 20 µg/mL (≈ 54 µM); EC50 [17]: > 200 µg/mL; EC50 (Vero [18]): > 100 µg/mL; EC50 (HeLa [19]): > 200 µg/mL; MIC (Vero [21]): >200; EC50 (HeLa [23]): > 200 µg/mL; EC50 (MDCK [24]): 20 µg/mL (≈ 54 µM)
CO/N=C/[C@H]1OC(n2cnc3c(N)ncnc32)[C@H](O)[C@@H]1O (some centres not stated)	> 100	> 100	–	400	330 (≈ 1120 µM)	> 100	100 (≈ 340 µM)	19 (≈ 64.6 µM)	> 10	>50	> 200	> 100	> 200	271 (≈ 921 µM)	218 (≈ 741 µM)	–	> 10	150 (≈ 510 µM)	94.6	0.048	EC50 (Human alphaherpesvirus 1 [12]): > 200 µg/mL; MIC (HeLa [14]): >200; MIC (MDCK [15]): 20; EC50 (MDCK [16]): 0.8 µg/mL (≈ 2.72 µM); EC50 [17]: > 200 µg/mL; EC50 (Vero [18]): > 100 µg/mL; EC50 (HeLa [19]): > 200 µg/mL; EC50 (Human alphaherpesvirus 1 [13]): > 200 µg/mL; MIC (Vero [21]): >200; EC50 (HeLa [23]): > 200 µg/mL; EC50 (MDCK [24]): 4 µg/mL (≈ 13.6 µM)
Nc1ncnc2c1ncn2[C@@H]1O[C@H](C=NO)[C@@H](O)[C@@H]1O	> 40	> 40	> 100	>200	15 (≈ 53.5 µM)	> 40	20 (≈ 71.4 µM)	12.7 (≈ 45.3 µM)	> 10	–	70 (≈ 250 µM)	> 40	> 100	10.5 (≈ 37.5 µM)	16.4 (≈ 58.5 µM)	70 (≈ 250 µM)	> 10	> 100	–	–	CC50 (HEL [22]): 34
Nc1ncnc2c1ncn2[C@@H]1O[C@@H](C=O)[C@@H](O)[C@H]1O	–	–	–	–	–	–	–	–	–	–	–	–	–	–	–	–	–	–	43	0.22	–
O=c1[nH]c(=O)n([C@H]2C[C@H](O)[C@@H](CO)O2)cc1/C=C/Br [BRIVUDINE]	> 400	> 400	–	>400	–	> 400	0.7 (≈ 2.1 µM)	–	> 40	>40	0.04 (≈ 0.12 µM)	> 400	–	–	–	–	> 40	> 400	–	–	EC50 (Human alphaherpesvirus 1 [12]): 10 µg/mL (≈ 30 µM); EC50 (Human alphaherpesvirus 1 [26]): > 400 µg/mL; EC50 (Human alphaherpesvirus 1 [13]): > 400 µg/mL
Nc1ncnc2c1ncn2[C@@H]1O[C@H](C=NO)[C@@H](O)[C@H]1O	> 1	> 1	> 4	7	2.9 (≈ 10.3 µM)	> 0.4	> 4	2.3 (≈ 8.21 µM)	0.25 (≈ 0.892 µM)	–	> 4	> 0.4	> 4	1.8 (≈ 6.42 µM)	5.4 (≈ 19.3 µM)	> 4	0.3 (≈ 1.07 µM)	> 1	670	0.16	MIC (HeLa [14]): >4; MIC (MDCK [15]): 0.8; EC50 (MDCK [16]): 0.8 µg/mL (≈ 2.85 µM); EC50 [17]: < 4 µg/mL; EC50 (Vero [18]): > 0.4 µg/mL; EC50 (HeLa [19]): > 4 µg/mL; MIC (Vero [21]): >1; CC50 (HEL [22]): 0.7; EC50 (HeLa [23]): > 40 µg/mL; EC50 (MDCK [24]): > 0.8 µg/mL
Nc1ncnc2c1ncn2C1CC(O)C(/C=N/O)O1 (configuration not stated)	> 100	> 100	> 100	200	13.8 (≈ 52.2 µM)	> 100	> 100	11.2 (≈ 42.4 µM)	0.6 (≈ 2.27 µM)	14	> 100	> 100	> 100	4.6 (≈ 17.4 µM)	17 (≈ 64.3 µM)	> 100	1 (≈ 3.78 µM)	> 100	–	–	–
Nc1ncnc2c1ncn2[C@@H]1O[C@@H](C=NO)[C@@H](O)[C@H]1O	–	–	–	–	–	–	–	–	–	–	–	–	–	–	–	–	–	–	224	0.13	–
